This experiment relates to FLK-1 receptor. Description: FLK-1 Assay (cellular/catalytic ELISA, VEGF-stimulated phosphotyrosine). It counts as cell-based. Set-up: concentration or dose not given beside the values. The procedure, abridged:
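NIH3T3 C7#3 cells engineered to express Flk-1 were serum-starved overnight (0.1% FBS), then exposed to compound for 2 h at 37 °C (final dilution 1:200, 0.5% DMSO) before VEGF stimulation. Lysates captured on anti-FLK-1 antiserum plates; phosphotyrosine detected by UB40 antibody/POD-ABTS ELISA versus untreated controls.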
Take `Cc1cc(C=C2C(=O)Nc3c(Br)cc(Br)c(C)c32)cc(C(C)(C)C)c1O` [10726/H04]: the “Flk Kinase % Inhibition (P.110)” value was 2.5%.

`Cc1c(Br)cc(Br)c2c1C(=Cc1cc3c4c(c1O)CCCN4CCC3)C(=O)N2` [10724/H05]: the “Flk Kinase % Inhibition (P.110)” value was −0.4%.

In the case of `CCOC(=O)c1[nH]c(C=C2C(=O)Nc3c(Br)cc(Br)c(C)c32)c(C(=O)OC)c1C` [10726/H03], the “Flk Kinase % Inhibition (P.110)” value was 0.4%.

Consider `Cc1c(Br)cc(Br)c2c1C(=Cc1ccc(F)cc1F)C(=O)N2` [10722/H06], for which the “Flk Kinase % Inhibition (P.110)” value turned out to be 18.9%.

For `Cc1c(Br)cc(Br)c2c1C(=Cc1cc([N+](=O)[O-])c(O)c(C(C)(C)C)c1)C(=O)N2` [10722/H02], the “Flk Kinase % Inhibition (P.110)” value is reported as 4.2%.

Consider `Cc1c(Br)cc(Br)c2c1C(=Cc1cc(C(C)(C)C)cc(C(C)(C)C)c1O)C(=O)N2` [10723/H11], for which the “Flk Kinase % Inhibition (P.110)” value was −5.1%.

Regarding `Cc1c(Br)cc(Br)c2c1C(=Cc1ccc(N(C)C)c3ccccc13)C(=O)N2` [10724/H02], the “Flk Kinase % Inhibition (P.110)” value was 11.5%.

For `COc1ccc(O)c(C=C2C(=O)Nc3c(Br)cc(Br)c(C)c32)c1` [10720/H10], the “Flk Kinase % Inhibition (P.110)” value was −22.8%.

For the origin of these results see patent US20020026053A1, “Novel 3-(substituted) -2- indolinones compounds and use thereof as inhibitors of protein kinase activity” (priority 1997, published 2002).
